Biological target: T1, sproBACE1 (soluble human BACE1) (Homo sapiens, UniProt P56817)
T1 construct: sBACE1, corresponding to amino acids 1-454; made in house; host or cells: Sf9 insect cells (baculovirus), secreted into the medium
Assay: Peptide Hydrolysis Assay (HTRF, EuK-biotin labeled APPsw substrate)
Format: biochemical
Conditions: 7 nM sproBACE1, APPsw substrate, pH 5.0, 3 hr at 30° C., HTRF 665/620 ratio
Text: A predicted soluble form of human BACE1 (sBACE1, corresponding to amino acids 1-454) was generated from the full length BACE1 cDNA (full length human BACE1 cDNA in pCDNA4/mycHisA construct; University of Toronto) by PCR using the advantage-GC cDNA PCR kit (Clontech, Palo Alto, Calif.). A HindIII/Pmel fragment from pCDNA4-sBACE1myc/His was blunt ended using Klenow and subcloned into the Stu I site of pFASTBACI(A) (Invitrogen). A sBACE1mycHis recombinant bacmid was generated by transposition in DH10Bac cells(GIBCO/BRL). Subsequently, the sBACE1mycHis bacmid construct was transfected into sf9 cells using CellFectin (Invitrogen, San Diego, Calif.) in order to generate recombinant baculovirus. […]
Proteins, were eluted from the Q-sepharose column with Buffer B (20 mM HEPES, pH 8.0, 500 mM NaCl). […] Peak protein fractions as determined by the Bradford Assay (Biorad, Calif.) were concentrated using a Centricon 30 concentrator (Millipore). sBACE1 purity was estimated to be ˜90% as assessed by SDS-PAGE and Commassie Blue staining. […]
IC50 determinations for inhibitors, (I), were determined by measuring the percent change of the relative fluorescence at 665 nm divided by the relative fluorescence at 620 nm, (665/620 ratio), in the presence of varying concentrations of I and a fixed concentration of enzyme and substrate. […]

T1 sequence (P56817 22-454): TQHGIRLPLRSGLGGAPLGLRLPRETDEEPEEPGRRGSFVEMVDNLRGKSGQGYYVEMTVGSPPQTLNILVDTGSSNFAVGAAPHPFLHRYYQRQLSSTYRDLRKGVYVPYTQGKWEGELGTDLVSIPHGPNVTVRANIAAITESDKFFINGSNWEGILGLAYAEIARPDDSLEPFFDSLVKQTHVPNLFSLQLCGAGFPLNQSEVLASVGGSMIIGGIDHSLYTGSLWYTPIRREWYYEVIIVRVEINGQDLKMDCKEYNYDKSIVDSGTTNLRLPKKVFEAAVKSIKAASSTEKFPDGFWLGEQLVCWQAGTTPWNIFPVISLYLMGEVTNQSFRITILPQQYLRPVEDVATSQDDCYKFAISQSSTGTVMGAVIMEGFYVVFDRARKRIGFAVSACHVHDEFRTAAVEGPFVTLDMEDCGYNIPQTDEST

`CCCCCN1CC(C(=O)NC(Cc2cc(F)cc(F)c2)[C@H](O)[C@@H]2NCCN(Cc3ccccc3)C2=O)N(Cc2ccccc2)C1=O` (stereo partly shown) [Example 5FF] showed an IC50 of 1 nM.

Reference: US7598250B2, “Cyclic amine BACE-1 inhibitors having a heterocyclic substituent” (Schering Corporation, priority 2003, dated 2009)
